The target of this assay is KRas G12D (Homo sapiens (Human), UniProt P01116, G12D). The assay can be described thus: KRas G12D Binding Assay (TR-FRET displacement of Cy5 labelled tracer). As to conditions: GDP-loaded KRAS G12D (amino acids 1:169), 60 minute incubation at 22° C. As for the experimental part:
After a 60 minute incubation at 22° C., the reaction was measured using a PerkinElmer EnVision multimode plate reader via TR-FRET dual wavelength detection, and the percent of control (POC) calculated using a ratiometric emission factor. […] The POC values were fit to a 4-parameter logistic curve and the IC50 value was determined as the concentration where the curve crosses 50 POC.
ND stands for “not determined.”

Sequence of KRas G12D (P01116 other isoform, or with tags, fused parts or gaps G12D): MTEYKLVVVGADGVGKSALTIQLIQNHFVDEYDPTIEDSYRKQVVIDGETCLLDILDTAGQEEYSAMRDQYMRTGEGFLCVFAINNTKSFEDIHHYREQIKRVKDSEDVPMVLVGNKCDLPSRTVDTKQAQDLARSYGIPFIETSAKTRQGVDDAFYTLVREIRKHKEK

For the compound `[2H]C1([2H])CC[C@@]2(C([2H])([2H])Oc3nc(N4C[C@H]5CC[C@@H](C4)N5)c4cnc(-c5cc(O)cc6cccc(CC)c56)c(F)c4n3)C[C@@H](F)CN12` [Example 480, 4-(4-((1R,5S)-3,8-diazabicyclo[3.2.1]octan-3-yl)-8-fluoro-2-(((2R,7aS)-2-fluorotetrahydro-1H-pyrrolizin-7a(5H)-yl-5,5-d2)methoxy-d2)pyrido[4,3-d]pyrimidin-7-yl)-5-ethylnaphthalen-2-ol], the IC50 was less than 0.002 nM.
Under `Oc1ccc(C(F)(F)F)c(-c2ncc3c(N4C[C@H]5CC[C@@H](C4)N5)nc(OCC45CCCN4CCC5)nc3c2F)c1` [Example 373, 3-(4-((1R,5S)-3,8-diazabicyclo[3.2.1]octan-3-yl)-8-fluoro-2-((tetrahydro-1H-pyrrolizin-7a(5H)-yl)methoxy)pyrido[4,3-d]pyrimidin-7-yl)-4-(trifluoromethyl)phenol] stands 1.6 nM; under `COc1c(Cl)cccc1-c1ncc2c(N3C[C@H]4CC[C@@H](C3)N4)nc(OCC34CCCN3CCC4)nc2c1F` [Example 311, 4-((1R,5S)-3,8-diazabicyclo[3.2.1]octan-3-yl)-7-(3-chloro-2-methoxyphenyl)-8-fluoro-2-((hexahydro-1H-pyrrolizin-7a-yl)methoxy)pyrido[4,3-d]pyrimidine], 135 nM.
Under `CCc1cccc2cncc(-c3ncc4c(N5CC6CCC(C5)N6)nc(OCC56CCCN5C[C@H](F)C6)nc4c3F)c12` (mixture of isomers) [Example 324, 4-((1R,5S)-3,8-diazabicyclo[3.2.1]octan-3-yl)-7-(5-ethylisoquinolin-4-yl)-8-fluoro-2-((2-fluorotetrahydro-1H-pyrrolizin-7a(5H)-yl)methoxy)pyrido[4,3-d]pyrimidine (racemic, trans)] stands 10.2 nM; under `Oc1cc(-c2ncc3c(N4C[C@H]5CC[C@@H](C4)N5)nc(OCC45CCCN4CCC5)nc3c2F)c2c(Cl)cccc2c1` [Example 36, 4-(4-((1R,5S)-3,8-diazabicyclo[3.2.1]octan-3-yl)-8-fluoro-2-((tetrahydro-1H-pyrrolizin-7a(5H)-yl)methoxy)pyrido[4,3-d]pyrimidin-7-yl)-5-chloronaphthalen-2-ol], 0.4 nM; under `CCc1ccccc1-c1ncc2c(N3C[C@H]4CC[C@@H](C3)N4)nc(OCC34CCCN3CCC4)nc2c1F` [Example 295, 4-((1R,5S)-3,8-diazabicyclo[3.2.1]octan-3-yl)-7-(2-ethylphenyl)-8-fluoro-2-((hexahydro-1H-pyrrolizin-7a-yl)methoxy)pyrido[4,3-d]pyrimidine], 192 nM.
With `COC(=O)NC[C@H]1CC[C@@]2(COc3nc(N4CC5CCC(C4)N5)c4cnc(-c5cccc6cccc(Cl)c56)c(F)c4n3)CCCN12` [Example 411, methyl ((7a-(((4-(3,8-diazabicyclo[3.2.1]octan-3-yl)-7-(8-chloronaphthalen-1-yl)-8-fluoropyrido[4,3-d]pyrimidin-2-yl)oxy)methyl)hexahydro-1H-pyrrolizin-3-yl)methyl)carbamate], the IC50 was determined as 17 nM.
`C=Cc1cccc2cccc(-c3ncc4c(N5C[C@H]6CC[C@@H](C5)N6)nc(OC[C@@H]5CCCN5C)nc4c3F)c12` [Example 201, 4-((1R,5S)-3,8-diazabicyclo[3.2.1]octan-3-yl)-8-fluoro-2-(((S)-1-methylpyrrolidin-2-yl)methoxy)-7-(8-vinyInaphthalen-1-yl)pyrido[4,3-d]pyrimidine] had an IC50 of 70.2 nM.
On to `CCc1cccc2cccc(-c3ncc4c(N5C[C@H]6CC[C@@H](C5)N6)nc(OCC56CCCN5CCC6)nc4c3F)c12` [Example 187, 4-((1R,5S)-3,8-diazabicyclo[3.2.1]octan-3-yl)-7-(8-ethylnaphthalen-1-yl)-8-fluoro-2-((tetrahydro-1H-pyrrolizin-7a(5H)-yl)methoxy)pyrido[4,3-d]pyrimidine], for which the IC50 is 1.7 nM.
Compound `CC#Cc1cccc2cccc(-c3ncc4c(N5C[C@H]6CC[C@@H](C5)N6)nc(OCC56CCCN5CCC6)nc4c3F)c12` [Example 195, 4-((1R,5S)-3,8-diazabicyclo[3.2.1]octan-3-yl)-8-fluoro-7-(8-(prop-1-yn-1-yl)naphthalen-1-yl)-2-((tetrahydro-1H-pyrrolizin-7a(5H)-yl)methoxy)pyrido[4,3-d]pyrimidine] displayed an IC50 of 20.7 nM.
The compound `Cc1cc2sc(N)nc2c(-c2ncc3c(N4C[C@H]5CC[C@@H](C4)N5)nc(OC[C@@]45CCCN4C[C@H](F)C5)nc3c2F)c1C` [Example 457, 4-(4-((1R,5S)-3,8-diazabicyclo[3.2.1]octan-3-yl)-8-fluoro-2-(((2R,7aS)-2-fluorohexahydro-1H-pyrrolizin-7a-yl)methoxy)pyrido[4,3-d]pyrimidin-7-yl)-5,6-dimethylbenzo[d]thiazol-2-amine] showed an IC50 of 475 nM.
As for `CCC1(N)CN(c2nc(N3C[C@H]4CC[C@@H](C3)N4)c3cnc(-c4cccc5cccc(Cl)c45)c(F)c3n2)C1` [Example 128, 1-(4-((1R,5S)-3,8-diazabicyclo[3.2.1]octan-3-yl)-7-(8-chloronaphthalen-1-yl)-8-fluoropyrido[4,3-d]pyrimidin-2-yl)-3-ethylazetidin-3-amine], the IC50 was 501 nM.
With `N=C(N)NCCCOc1nc(N2CC3CCC(C2)N3)c2cnc(-c3cccc4cccc(Cl)c34)c(F)c2n1` [Example 177, 1-[3-[7-(8-chloro-1-naphthyl)-4-(3,8-diazabicyclo[3.2.1]octan-3-yl)-8-fluoro-pyrido[4,3-d]pyrimidin-2-yl]oxypropyl]guanidine], the IC50 came out at 187 nM.
The figure for `CC(C)c1ccc(O)cc1-c1ncc2c(N3CC4CCC(C3)N4)nc(OC[C@@]34CCCN3C[C@H](F)C4)nc2c1F` (stereo in doubt) [Example 399, 3-(4-((1R,5S)-3,8-diazabicyclo[3.2.1]octan-3-yl)-8-fluoro-2-((2-fluorotetrahydro-1H-pyrrolizin-7a(5H)-yl)methoxy)pyrido[4,3-d]pyrimidin-7-yl)-4-isopropylphenol] is 2.7 nM; for `Oc1cccc(OC(F)(F)F)c1-c1ncc2c(N3CC4CCC(C3)N4)nc(OC[C@@]34CCCN3C[C@H](F)C4)nc2c1F` [Example 392, 2-(4-((1R,5S)-3,8-diazabicyclo[3.2.1]octan-3-yl)-8-fluoro-2-((2-fluorotetrahydro-1-H-pyrrolizin-7a(5H)-yl)methoxy)pyrido[4,3-d]pyrimidin-7-yl)-3-(trifluoromethoxy)phenol] it is 208 nM.
In the case of `Fc1ccc2cccc(-c3ncc4c(N5C[C@H]6CC[C@@H](C5)N6)nc(OCC56CCCN5CCC6)nc4c3F)c2c1Cl` [Example 98, 4-((1R,5S)-3,8-diazabicyclo[3.2.1]octan-3-yl)-7-(8-chloro-7-fluoronaphthalen-1-yl)-8-fluoro-2-((tetrahydro-1H-pyrrolizin-7a(5H)-yl)methoxy)pyrido[4,3-d]pyrimidine bis(2,2,2-trifluoroacetate)], the IC50 came to 1 nM.
`O=C1OCCN1C[C@H]1CC[C@@]2(COc3nc(N4CC5CCC(C4)N5)c4cnc(-c5cccc6cccc(Cl)c56)c(F)c4n3)CCCN12` [Example 442, 3-(((3R,7aR)-7a-(((4-(3,8-diazabicyclo[3.2.1]octan-3-yl)-7-(8-chloronaphthalen-1-yl)-8-fluoropyrido[4,3-d]pyrimidin-2-yl)oxy)methyl)hexahydro-1H-pyrrolizin-3-yl)methyl)oxazolidin-2-one] gave an IC50 of 25 nM.
Take `O=C1CCC2(COc3nc(N4CC5CCC(C4)N5)c4cnc(-c5cc(O)cc6ccccc56)c(F)c4n3)CCCN12` (centres unmarked) [Example 462, 7a-(((4-(3,8-diazabicyclo[3.2.1]octan-3-yl)-8-fluoro-7-(3-hydroxynaphthalen-1-yl)pyrido[4,3-d]pyrimidin-2-yl)oxy)methyl)tetrahydro-1H-pyrrolizin-3(2H)-one]: the IC50 is 0.751 nM. This IC50 is about 33-fold lower than that of the compound before.
The figure for `Oc1cc(Cl)c(C(F)(F)F)c(-c2ncc3c(N4C[C@H]5CC[C@@H](C4)N5)nc(OC[C@@]45CCCN4C[C@H](F)C5)nc3c2F)c1` [Example 284, 3-(4-((1R,5S)-3,8-diazabicyclo[3.2.1]octan-3-yl)-8-fluoro-2-(((2R,7aS)-2-fluorohexahydro-1H-pyrrolizin-7a-yl)methoxy)pyrido[4,3-d]pyrimidin-7-yl)-5-chloro-4-(trifluoromethyl)phenol] is 0.1 nM; for `Fc1c(-c2c(C(F)(F)F)ccc3[nH]ncc23)ncc2c(N3C[C@H]4CC[C@@H](C3)N4)nc(OCC34CCCN3CCC4)nc12` [Example 344, 4-((1R,5S)-3,8-diazabicyclo[3.2.1]octan-3-yl)-8-fluoro-2-((tetrahydro-1H-pyrrolizin-7a(5H)-yl)methoxy)-7-(5-(trifluoromethyl)-1H-indazol-4-yl)pyrido[4,3-d]pyrimidine] it is 10.9 nM.
The compound `Oc1cc(-c2ncc3c(N4C[C@H]5CC[C@@H](C4)N5)nc(OCC45CCCN4C(CF)CC5)nc3c2F)c2c(Cl)cccc2c1` (stereo partly drawn) [Example 400, 4-(4-((1R,5S)-3,8-diazabicyclo[3.2.1]octan-3-yl)-8-fluoro-2-((3-(fluoromethyl)tetrahydro-1H-pyrrolizin-7a(5H)-yl)methoxy)pyrido[4,3-d]pyrimidin-7-yl)-5-chloronaphthalen-2-ol] returned an IC50 of 4.2 nM.
As for `CN1CC[C@@H](COc2nc(N3C[C@H]4CC[C@@H](C3)N4)c3cnc(-c4cccc5cccc(Cl)c45)c(F)c3n2)C1` [Example 356, 4-((1R,5S)-3,8-diazabicyclo[3.2.1]octan-3-yl)-7-(8-chloronaphthalen-1-yl)-8-fluoro-2-(((R)-1-methylpyrrolidin-3-yl)methoxy)pyrido[4,3-d]pyrimidine], the IC50 came to 87.2 nM. This IC50 lies about 21-fold higher than the previous one.
For the compound `Fc1c(-c2c3ccccc3cc3[nH]ncc23)ncc2c(N3C[C@H]4CC[C@@H](C3)N4)nc(OCC34CCCN3CCC4)nc12` [Example 257, 4-(4-((1R,5S)-3,8-diazabicyclo[3.2.1]octan-3-yl)-8-fluoro-2-((hexahydro-1H-pyrrolizin-7a-yl)methoxy)pyrido[4,3-d]pyrimidin-7-yl)-1H-benzo[f]indazole], the IC50 turned out to be 5.1 nM.
